Source: US20070128217A1 (priority 2003, published 2007)

Tests used:
[1] = tested on: control sera (pooled serum of ten healthy LUMC hospital workers; commercial negative donor pooled serum from the Dutch bloodbank); assay type: binding, human; parameters: Binding of Control serum LUMC to linear peptides / Binding of Control serum Blood-bank to linear peptides / Binding of Control serum LUMC to looped peptides / Binding of Control Serum Blood-Bank to Looped peptides / Binding of Control serum LUMC to linear peptides of the protein M of SARS-CoV Urbani / Binding of Control serum Blood-bank to linear peptides of the protein M of SARS-CoV Urbani / Binding of Control serum LUMC to looped peptides of the protein M of SARS-CoV Urbani / Binding of Control Serum Blood-Bank to Looped peptides of the protein M of SARS-CoV Urbani: unit not given here
[2] = tested on: rabbit serum obtained by immunizing a rabbit with the SARS-CoV strain Frankfurt 1; assay type: binding; parameters: Binding of a rabbit serum to linear peptides / Binding of a rabbit serum to looped peptides / Rabbit serum linear peptides / Rabbit serum looped peptides / Binding of a rabbit serum to linear peptides of protein N of SARS-CoV Urbani (Rabbit serum linear peptides) / Binding of a rabbit serum to looped/cyclic peptides of protein N of SARS-CoV Urbani (Rabbit serum looped peptides): unit not given here
[3] = tested on: recombinant human anti-SARS-CoV antibody 03-018; assay type: binding; parameters: Binding of antibody 03-018 to linear peptides of the N protein of SARS-CoV Urbani / Binding of antibody 03-018 to looped/cyclic peptides of the N protein of SARS-CoV Urbani: unit not given here
[4] = tested on: antibodies in sera from SARS patients (sera 1a, 1b, 2, 6, 37, 62, London, SARS-yellow, SARS-green); assay type: binding, human; parameters: Binding of serum 6 to linear peptides of protein X1 of SARS-CoV Urbani / Binding of serum 37 to linear peptides of protein X1 of SARS-CoV Urbani / Binding of serum 6 to looped/cyclic peptide (PEPSCAN-ELISA) / Binding of serum 37 to looped/cyclic peptide (PEPSCAN-ELISA) / Binding of serum 37 to looped/cyclic peptides of protein X1 of SARS-CoV Urbani / Binding of serum 6 to linear peptides of protein X2 / Binding of serum 37 to linear peptides of protein X2 / Binding of serum 37 to looped/cyclic peptides of protein X2 of SARS-CoV Urbani / Binding of serum 6 to linear peptides of protein M of SARS-CoV Urbani / Binding of serum 37 to linear peptides of protein M of SARS-CoV Urbani / Binding of serum 6 to looped/cyclic peptides of protein M of SARS-CoV Urbani / Binding of serum 37 to looped/cyclic peptides of protein M of SARS-CoV Urbani / Binding of serum 6 to linear peptides of protein X3 of SARS-CoV Urbani / Binding of serum 37 to linear peptides of protein X3 of SARS-CoV Urbani / Binding of serum 37 to looped/cyclic peptides of protein X3 of SARS-CoV Urbani / Binding of serum 6 to linear peptides of protein X4 of SARS-CoV Urbani / Binding of serum 37 to linear peptides of protein X4 of SARS-CoV Urbani / Binding of serum 37 to looped/cyclic peptides of protein X4 of SARS-CoV Urbani / Binding of serum 6 to linear peptides of protein X5 of SARS-CoV Urbani / Binding of serum 37 to linear peptides of protein X5 of SARS-CoV Urbani / Binding of serum 37 to looped/cyclic peptides of protein X5 of SARS-CoV Urbani / Binding of serum 6 to linear peptides of protein N of SARS-CoV Urbani / Binding of serum 37 to linear peptides of protein N of SARS-CoV Urbani / Binding of serum 6 to linear peptide (PEPSCAN-ELISA) / Binding of serum 1a to looped/cyclic peptides of protein N of SARS-CoV Urbani / Binding of serum 1b to looped/cyclic peptides of protein N of SARS-CoV Urbani / Binding of serum 2 to looped/cyclic peptides of protein N of SARS-CoV Urbani / Binding of serum 6 to looped/cyclic peptides of protein N of SARS-CoV Urbani / Binding of serum 37 to looped/cyclic peptides of protein N of SARS-CoV Urbani / Binding of serum 62 to looped/cyclic peptides of protein N of SARS-CoV Urbani / Binding of serum London to looped/cyclic peptides of protein N of SARS-CoV Urbani / Binding of serum SARS-green to looped/cyclic peptides of protein N of SARS-CoV Urbani: unit not given here

Sequence | Binding of Control Serum Blood-Bank to Looped peptides [1] | Binding of Control serum Blood-bank to linear peptides [1] | Binding of Control serum LUMC to linear peptides [1] | Binding of Control serum LUMC to looped peptides [1] | Binding of a rabbit serum to linear peptides of protein N of SARS-CoV Urbani (Rabbit serum linear peptides) [2] | Binding of a rabbit serum to looped/cyclic peptides of protein N of SARS-CoV Urbani (Rabbit serum looped peptides) [2] | Binding of antibody 03-018 to linear peptides of the N protein of SARS-CoV Urbani [3] | Binding of antibody 03-018 to looped/cyclic peptides of the N protein of SARS-CoV Urbani [3] | Binding of serum 1a to linear peptides of protein N of SARS-CoV Urbani [4] | Binding of serum 1a to looped/cyclic peptides of protein N of SARS-CoV Urbani [4] | Binding of serum 1b to linear peptides of protein N of SARS-CoV Urbani [4] | Binding of serum 1b to looped/cyclic peptides of protein N of SARS-CoV Urbani [4] | Binding of serum 2 to linear peptides of protein N of SARS-CoV Urbani [4] | Binding of serum 2 to looped/cyclic peptides of protein N of SARS-CoV Urbani [4] | Binding of serum 6 to looped/cyclic peptides of protein N of SARS-CoV Urbani [4] | Binding of serum 37 to looped/cyclic peptides of protein N of SARS-CoV Urbani [4] | Binding of serum 62 to looped/cyclic peptides of protein N of SARS-CoV Urbani [4] | Binding of serum London to looped/cyclic peptides of protein N of SARS-CoV Urbani [4] | Binding of serum SARS-green to looped/cyclic peptides of protein N of SARS-CoV Urbani [4] | Binding of serum SARS-yellow to looped/cyclic peptides of protein N of SARS-CoV Urbani [4] | other results
LNTPKDHIGTRNPNN | 0.5 | 0.8 | 0.6 | 0.6 | 0.2 | 0.0 | 0.1 | 0.2 | 0.2 | 0.4 | 0.1 | 0.3 | 0.3 | 0.4 | 0.3 | 0.6 | 0.5 | 0.5 | 0.4 | 0.4 | Binding of serum 6 to linear peptides of protein N of SARS-CoV Urbani [4]: 0.2; Binding of serum 37 to linear peptides of protein N of SARS-CoV Urbani [4]: 0.7; Binding of serum 62 to linear peptides of protein N of SARS-CoV Urbani [4]: 0.6; Binding of serum London to linear peptides of protein N of SARS-CoV Urbani [4]: 0.5; Binding of serum SARS-green to linear peptides of protein N of SARS-CoV Urbani [4]: 0.2; Binding of serum SARS-yellow to linear peptides of protein N of SARS-CoV Urbani [4]: 0.6
LPAADMDDFSRQLQN |  |  |  |  | 0.2 | 0.2 | 0.1 | 0.2 | 0.2 | 0.3 | 0.2 | 0.2 | 0.4 | 0.5 | 0.4 | 0.6 | 0.4 | 0.3 | 0.5 | 0.6 | Control Serum Blood-Bank Looped peptides [1]: 0.4; Control serum Blood-bank linear peptides [1]: 0.7; Control serum LUMC linear peptides [1]: 0.7; Control serum LUMC looped peptides [1]: 0.4; Binding of serum 6 to linear peptides of protein N of SARS-CoV Urbani [4]: 0.3; Binding of serum 37 to linear peptides of protein N of SARS-CoV Urbani [4]: 0.7; Binding of serum 62 to linear peptides of protein N of SARS-CoV Urbani [4]: 0.6; Binding of serum London to linear peptides of protein N of SARS-CoV Urbani [4]: 0.5; Binding of serum SARS-green to linear peptides of protein N of SARS-CoV Urbani [4]: 0.2; Binding of serum SARS-yellow to linear peptides of protein N of SARS-CoV Urbani [4]: 0.6
LPKGFYAEGSRGGSQ | 0.6 | 0.6 | 0.6 | 0.5 | 0.1 | 0.1 | 0.1 | 0.2 |  | 0.3 |  | 0.2 |  | 0.3 | 0.2 | 0.5 | 0.4 | 0.4 | 0.3 | 0.2 | Binding of serum 1a to linear peptide (PEPSCAN-ELISA) [4]: 0.2; Binding of serum 1b to linear peptide (PEPSCAN-ELISA) [4]: 0.1; Binding of serum 2 to linear peptide (PEPSCAN-ELISA) [4]: 0.2; Binding of serum 6 to linear peptide (PEPSCAN-ELISA) [4]: 0.1; Binding of serum 37 to linear peptide (PEPSCAN-ELISA) [4]: 0.6; Binding of serum 62 to linear peptide (PEPSCAN-ELISA) [4]: 0.6; Binding of serum London to linear peptide (PEPSCAN-ELISA) [4]: 0.4; Binding of serum SARS-green to linear peptide (PEPSCAN-ELISA) [4]: 0.2; Binding of serum SARS-yellow to linear peptide (PEPSCAN-ELISA) [4]: 0.5
LPNNTASWFTALTQH | 0.8 | 0.7 | 0.7 | 0.7 | 0.1 | 0.6 | 0.1 | 0.3 | 0.2 | 0.4 | 0.1 | 0.3 | 0.2 | 0.4 | 0.3 | 0.8 | 0.7 | 0.3 | 0.7 | 0.7 | Binding of serum 6 to linear peptides of protein N of SARS-CoV Urbani [4]: 0.1; Binding of serum 37 to linear peptides of protein N of SARS-CoV Urbani [4]: 0.7; Binding of serum 62 to linear peptides of protein N of SARS-CoV Urbani [4]: 0.7; Binding of serum London to linear peptides of protein N of SARS-CoV Urbani [4]: 0.4; Binding of serum SARS-green to linear peptides of protein N of SARS-CoV Urbani [4]: 0.3; Binding of serum SARS-yellow to linear peptides of protein N of SARS-CoV Urbani [4]: 0.5
